ChEMBL document CHEMBL4038316, “Enantioselective Synthesis and in Vivo Evaluation of Regioisomeric Analogues of the Antimalarial Arterolane” (J Med Chem, 2017)
Values after ≈ are worked out from the molar mass of the structure shown.

Legend:
in vitro = settings: mouse, liver microsomes
Description: (§3) Intrinsic clearance in mouse liver microsomes assessed per mg of protein

[1] = (§1) Half life in mouse liver microsomes; assay type: ADME, microsome; settings: liver microsomes
Plasmodium berghei [2] = assay: Antiplasmodial activity against Plasmodium berghei infected in Swiss Webster mouse assessed as cure rate at 6 mg/kg/day administered for 4 days via oral gavage starting at 1 hr post infection measured after 30 days relative to control; assay type: functional
Plasmodium falciparum [3] = assay: Antiplasmodial activity against chloroquine-resistant Plasmodium falciparum W2 infected in human RBC after 48 hrs by YOYO-1 staining-based flow cytometry method; assay type: functional; settings: W2, 48 h
Plasmodium berghei [4] = assay: Antiplasmodial activity against Plasmodium berghei infected in Swiss Webster mouse assessed as cure rate at 4 mg/kg/day administered for 4 days via oral gavage starting at 1 hr post infection measured after 30 days relative to control; assay type: functional
Liver [5] = assay: Metabolic stability in mouse liver microsomes in absence of NADPH; assay type: ADME, microsome
Plasmodium berghei [6] = assay: Antiplasmodial activity against Plasmodium berghei infected in Swiss Webster mouse assessed as increase in cure rate administered for 4 days via oral gavage starting at 1 hr post infection measured after 30 days; assay type: functional; settings: for ED50: Plasmodium berghei, po, read-out: PD50
Plasmodium berghei [7] = assay: Antiplasmodial activity against Plasmodium berghei infected in Swiss Webster mouse assessed as cure rate at 80 mg/kg/day administered for 1 day via oral gavage starting at 1 hr post infection measured after 30 days relative to control; assay type: functional
Plasmodium berghei [8] = assay: Antiplasmodial activity against Plasmodium berghei infected in Swiss Webster mouse assessed as cure rate at 4 mg/kg/day administered for 2 days via oral gavage starting at 1 hr post infection measured after 30 days relative to control; assay type: functional
Plasmodium berghei [9] = assay: Antiplasmodial activity against Plasmodium berghei infected in Swiss Webster mouse assessed as cure rate at 2 mg/kg/day administered for 4 days via oral gavage starting at 1 hr post infection measured after 30 days relative to control; assay type: functional
Plasmodium berghei [10] = assay: Antiplasmodial activity against Plasmodium berghei infected in Swiss Webster mouse assessed as cure rate at 4 mg/kg/day administered for 1 day via oral gavage starting at 1 hr post infection measured after 30 days relative to control; assay type: functional
Plasmodium berghei [11] = assay: Antiplasmodial activity against Plasmodium berghei infected in Swiss Webster mouse assessed as cure rate at 4 mg/kg/day administered for 3 days via oral gavage starting at 1 hr post infection measured after 30 days relative to control; assay type: functional
Plasmodium berghei [12] = assay: Antiplasmodial activity against Plasmodium berghei infected in Swiss Webster mouse assessed as cure rate at 40 mg/kg/day administered for 1 day via oral gavage starting at 1 hr post infection measured after 30 days relative to control; assay type: functional
Plasmodium berghei [13] = assay: Antiplasmodial activity against Plasmodium berghei infected in Swiss Webster mouse assessed as cure rate at 40 mg/kg/day administered for 2 days via oral gavage starting at 1 hr post infection measured after 30 days relative to control; assay type: functional
Plasmodium berghei [14] = assay: Antiplasmodial activity against Plasmodium berghei infected in Swiss Webster mouse assessed as cure rate at 0.5 mg/kg/day administered for 4 days via oral gavage starting at 1 hr post infection measured after 30 days relative to control; assay type: functional
Plasmodium berghei [15] = assay: Antiplasmodial activity against Plasmodium berghei infected in Swiss Webster mouse assessed as cure rate at 1 mg/kg/day administered for 4 days via oral gavage starting at 1 hr post infection measured after 30 days relative to control; assay type: functional
[16] = (§2) Half life in mouse liver microsomes in absence of NADPH; assay type: ADME, microsome; settings: liver microsomes
Plasmodium falciparum [17] = assay: Antiplasmodial activity against Plasmodium falciparum Cam3.2_rev infected in human RBC assessed as time required to reduce early ring stage parasite viability by 50% by SYTO 61-staining-based flow cytometry; assay type: functional
Liver [18] = assay: as §1; assay type: ADME, microsome; settings: microsomes
Plasmodium berghei [19] = assay: Antiplasmodial activity against Plasmodium berghei infected in Swiss Webster mouse assessed as cure rate at 10 mg/kg/day administered for 4 days via oral gavage starting at 1 hr post infection measured after 30 days relative to control; assay type: functional
Liver [20] = settings: mouse, microsomes
Description: as §3

Plasmodium falciparum [21] = assay: Antiplasmodial activity against Plasmodium falciparum Cam3.2 infected in human RBC assessed as time required to reduce early ring stage parasite viability by 50% by SYTO 61-staining-based flow cytometry; assay type: functional
[22] = buffer, pH 7.4
Description: (§4) Kinetic solubility of the compound in PBS at pH 7.4

Liver [23] = assay: as §2; assay type: ADME, microsome; settings: microsomes
Plasmodium berghei [24] = assay: Antiplasmodial activity against Plasmodium berghei infected in Swiss Webster mouse assessed as cure rate at 13.6 mg/kg/day administered for 4 days via oral gavage starting at 1 hr post infection measured after 30 days relative to control; assay type: functional
physchem = settings: PBS, pH 7.4
Description: as §4

Plasmodium berghei [25] = assay: Antiplasmodial activity against Plasmodium berghei infected in Swiss Webster mouse assessed as cure rate at 9.5 mg/kg/day administered for 4 days via oral gavage starting at 1 hr post infection measured after 30 days relative to control; assay type: functional

O=C(C[C@@H]1CCC[C@]2(C1)OOC1(O2)C2CC3CC(C2)CC1C3)N1CCNCC1 (stereo not given in full)
microsomal CLint (in vitro): 27.2 µL/min/mg
half-life [1]: 25.5 min
Activity (Plasmodium berghei [2]): 20%
EC50 (Plasmodium falciparum [3]): 2.9 nM
Activity (Plasmodium berghei [4]): 0%
Stability (Liver [5]): Stable

NC1CCN(C(=O)C[C@@H]2CCC[C@]3(C2)OOC2(O3)C3CC4CC(C3)CC2C4)CC1 (stereo not given in full)
microsomal CLint (in vitro): 8.2 µL/min/mg
half-life [1]: 84.5 min
EC50 (Plasmodium falciparum [3]): 3.9 nM
Stability (Liver [5]): Stable
PD100 (Plasmodium berghei [6]): 4 mg/kg/day

O=C(C[C@H]1CC[C@]2(CC1)OO[C@]1(O2)C2CC3CC(C2)CC1C3)N1CCCCC1
Activity (Plasmodium berghei [2]): 0%
EC50 (Plasmodium falciparum [3]): 57 nM
Activity (Plasmodium berghei [4]): 0%

CC(C)(CN)CNC(=O)C[C@@H]1CCC[C@]2(C1)OOC1(O2)C2CC3CC(C2)CC1C3 (stereo not given in full)
microsomal CLint (in vitro): 10.8 µL/min/mg
half-life [1]: 64.2 min
Activity (Plasmodium berghei [2]): 0%
EC50 (Plasmodium falciparum [3]): 4.1 nM
Activity (Plasmodium berghei [4]): 0%
Stability (Liver [5]): Stable

NCCNC(=O)C[C@@H]1CCC[C@]2(C1)OOC1(O2)C2CC3CC(C2)CC1C3 (stereo not given in full)
microsomal CLint (in vitro): 8.2 µL/min/mg
Activity (Plasmodium berghei [7]): 20%
half-life [1]: 84.5 min
Activity (Plasmodium berghei [8]): 0%
Activity (Plasmodium berghei [2]): 100%
Activity (Plasmodium berghei [9]): 0%
Activity (Plasmodium berghei [10]): 0%
Activity (Plasmodium berghei [11]): 20%
EC50 (Plasmodium falciparum [3]): 5.4 nM
Activity (Plasmodium berghei [12]): 0%
Activity (Plasmodium berghei [13]): 100%
Activity (Plasmodium berghei [14]): 0%
Activity (Plasmodium berghei [15]): 0%
half-life [16]: 136 min

CC(C)(N)CNC(=O)C[C@H]1CC[C@]2(CC1)OO[C@]1(O2)C2CC3CC(C2)CC1C3 [OZ277]
Time (Plasmodium falciparum [17]): 1 h
t1/2 (Liver [18]): 128 min
Activity (Plasmodium berghei [2]): 80 - 100%
EC50 (Plasmodium falciparum [3]): 2.5 nM
Activity (Plasmodium berghei [19]): 100%
Activity (Plasmodium berghei [4]): 20 - 80%
Stability (Liver [5]): Stable
CLH (Liver [20]): 5.4 µL/min
PD100 (Plasmodium berghei [6]): 10 mg/kg/day
ED50 (Plasmodium berghei [6]): 4 mg/kg/day
Activity (Plasmodium berghei [15]): 0%
Time (Plasmodium falciparum [21]): 3 h

C[C@]12CC[C@H]3[C@@H](CCC4=CC(=O)CC[C@@]43C)[C@@H]1CC[C@@H]2O [TESTOSTERONE]
Kinetic_solubility [22]: 315 µM

Cc1ncc2n1-c1ccc(Cl)cc1C(c1ccccc1F)=NC2 [MIDAZOLAM]
t1/2 (Liver [18]): 1.65 min
CLH (Liver [20]): 420 µL/min

NCCNC(=O)C[C@H]1CC[C@]2(CC1)OO[C@]1(O2)C2CC3CC(C2)CC1C3
t1/2 (Liver [18]): 64.2 min
Activity (Plasmodium berghei [2]): 20%
EC50 (Plasmodium falciparum [3]): 3.6 nM
Activity (Plasmodium berghei [4]): 0%
CLH (Liver [20]): 10.8 µL/min
t1/2 (Liver [23]): 70 min

O=C(C[C@H]1CC[C@]2(CC1)OO[C@]1(O2)C2CC3CC(C2)CC1C3)N1CCOCC1
Activity (Plasmodium berghei [2]): 0%
EC50 (Plasmodium falciparum [3]): 20.7 nM
Activity (Plasmodium berghei [4]): 0%

CC(C)(CN)CNC(=O)C[C@H]1CC[C@]2(CC1)OO[C@]1(O2)C2CC3CC(C2)CC1C3
t1/2 (Liver [18]): 161 min
Activity (Plasmodium berghei [2]): 100%
EC50 (Plasmodium falciparum [3]): 2.6 nM
Activity (Plasmodium berghei [4]): 40%
Stability (Liver [5]): Stable
CLH (Liver [20]): 4.3 µL/min

CN1CCN(C(=O)C[C@H]2CC[C@]3(CC2)OO[C@]2(O3)C3CC4CC(C3)CC2C4)CC1
Activity (Plasmodium berghei [2]): 0%
EC50 (Plasmodium falciparum [3]): 4.9 nM
Activity (Plasmodium berghei [4]): 0%

O=C(C[C@H]1CC[C@]2(CC1)OO[C@]1(O2)C2CC3CC(C2)CC1C3)N1CCNCC1
t1/2 (Liver [18]): 48.1 min
Activity (Plasmodium berghei [2]): 100%
EC50 (Plasmodium falciparum [3]): 1.9 nM
Activity (Plasmodium berghei [4]): 100%
CLH (Liver [20]): 14.4 µL/min
t1/2 (Liver [23]): 88.9 min

NC1CCN(C(=O)C[C@H]2CC[C@]3(CC2)OO[C@]2(O3)C3CC4CC(C3)CC2C4)CC1
t1/2 (Liver [18]): 277 min
Activity (Plasmodium berghei [2]): 100%
EC50 (Plasmodium falciparum [3]): 1.3 nM
Activity (Plasmodium berghei [4]): 100%
Stability (Liver [5]): Stable
CLH (Liver [20]): 2.5 µL/min

CC(C)(N)CNC(=O)C[C@H]1CC[C@]2(CC1)OOC1(O2)C2CC3CC(C2)CC1C3.Cc1ccc(S(=O)(=O)O)cc1 (stereo not given in full)
Activity (Plasmodium berghei [24]): 100%

CC(C)(N)CNC(=O)C[C@@H]1CCC[C@]2(C1)OOC1(O2)C2CC3CC(C2)CC1C3 (stereo not given in full)
microsomal CLint (in vitro): 4.1 µL/min/mg
half-life [1]: 169 min
Activity (Plasmodium berghei [2]): 60%
EC50 (Plasmodium falciparum [3]): 3 nM
solubility kinetic (physchem): 429 µM (≈ 168 µg/mL)
Activity (Plasmodium berghei [25]): 100%
Activity (Plasmodium berghei [19]): 100%
Stability (Liver [5]): Stable
PD100 (Plasmodium berghei [6]): 10 mg/kg/day
ED50 (Plasmodium berghei [6]): 6 mg/kg/day
Activity (Plasmodium berghei [15]): 0%

O=C(O)Cc1ccccc1Nc1c(Cl)cccc1Cl [DICLOFENAC]
CLH (Liver [20]): 12.5 µL/min

CN1CCN(C(=O)C[C@@H]2CCC[C@]3(C2)OOC2(O3)C3CC4CC(C3)CC2C4)CC1 (stereo not given in full)
Activity (Plasmodium berghei [2]): 0%
EC50 (Plasmodium falciparum [3]): 4.4 nM
Activity (Plasmodium berghei [4]): 0%

CC(C)(N)CNC(=O)C[C@@H]1CCC[C@]2(C1)OOC1(O2)C2CC3CC(C2)CC1C3.Cc1ccc(S(=O)(=O)O)cc1 (stereo not given in full)
Activity (Plasmodium berghei [24]): 100%

N[C@H]1CC[C@H](NC(=O)C[C@H]2CC[C@]3(CC2)OO[C@]2(O3)C3CC4CC(C3)CC2C4)CC1
Activity (Plasmodium berghei [2]): 80%
EC50 (Plasmodium falciparum [3]): 4.5 nM
Activity (Plasmodium berghei [4]): 80%

O=C(C[C@@H]1CCC[C@]2(C1)OOC1(O2)C2CC3CC(C2)CC1C3)N1CCCCC1 (stereo not given in full)
EC50 (Plasmodium falciparum [3]): 31.4 nM

NC(=O)CNC(=O)C[C@@H]1CCC[C@]2(C1)OOC1(O2)C2CC3CC(C2)CC1C3 (stereo not given in full)
microsomal CLint (in vitro): 18.6 µL/min/mg
half-life [1]: 37.3 min
EC50 (Plasmodium falciparum [3]): 10.6 nM
Stability (Liver [5]): Stable

c1cc([C@H]2CC[C@]3(CC2)OO[C@]2(O3)C3CC4CC(C3)CC2C4)ccc1OCCN1CCOCC1 [ARTEFENOMEL]
Time (Plasmodium falciparum [17]): 2 h
Time (Plasmodium falciparum [21]): 5 h

C[C@H]1[C@@H](O)O[C@@H]2O[C@@]3(C)CC[C@H]4[C@H](C)CC[C@@H]1[C@@]24OO3 [ARTENIMOL]
Time (Plasmodium falciparum [17]): 1 h
Time (Plasmodium falciparum [21]): 3 h

N[C@H]1CC[C@H](NC(=O)C[C@@H]2CCC[C@]3(C2)OOC2(O3)C3CC4CC(C3)CC2C4)CC1 (stereo not given in full)
Activity (Plasmodium berghei [2]): 100%
EC50 (Plasmodium falciparum [3]): 5.9 nM
Activity (Plasmodium berghei [4]): 60%

NC(=O)CNC(=O)C[C@H]1CC[C@]2(CC1)OO[C@]1(O2)C2CC3CC(C2)CC1C3
t1/2 (Liver [18]): 124 min
Activity (Plasmodium berghei [2]): 0%
EC50 (Plasmodium falciparum [3]): 9.2 nM
Activity (Plasmodium berghei [4]): 0%
Stability (Liver [5]): Stable
CLH (Liver [20]): 5.6 µL/min

O=C(C[C@@H]1CCC[C@]2(C1)OOC1(O2)C2CC3CC(C2)CC1C3)N1CCOCC1 (stereo not given in full)
Activity (Plasmodium berghei [2]): 0%
EC50 (Plasmodium falciparum [3]): 6.8 nM
Activity (Plasmodium berghei [4]): 0%
